Literature values, collected in patent US7625920B2, “Fluorinated 4-azasteroid derivatives as androgen receptor modulators” (priority 2003, dated 2009).

Legend:
[1] = median of 22 months of treatment
[2] = after 7 years of treatment

Compound	reduction in nonvertebral fractures [1] [%]	reduction in spine fractures [1] [%]	increase in spinal BMD [2] [%]
hPTH(1-34): human parathyroid hormone 1-34 fragment (SVSEIQLMHNLGKHLNSMERVEWLRKKLQDVHNF; Parathyroid hormone; UniProt P01270 32-65, looked up, fragment)	54	≥ 65	–
NCCCC(O)(P(=O)([O-])O)P(=O)(O)O.O.O.O.[Na+] [alendronate, (4-amino-1-hydroxybutylidene)-bis-phosphonate monosodium trihydrate]	–	–	11
